Measurements published in patent US20160244404A1, “OPTICAL ISOMERS OF (+) AND (-)-BENZHYDRYL UREAS AND (+) AND (-)-1-[(3-CHLOROPHENYL)-PHENYL-METHYL] UREA, A PHARMACEUTICAL COMPOSITION BASED THEREON AND A METHOD FOR PRODUCING SAID OPTICAL ISOMERS” (priority 2013, published 2016).
Marks after values point to notes of the source that are not given here.

Assays:
[1] = test system: convulsions induced by pentylenetetrazol; assay: Anticonvulsant potency against convulsions induced by pentylenetetrazol; assay type: in vivo; details: for mean convulsions score compared with that of the reference sample: all doses studied: 100 mg/kg, 150 mg/kg, 250 mg/kg; for anticonvulsive potency compared with the reference substance: on the basis of mean convulsions scores, 100, 150, 250 mg/kg; for Protection against stage 3 convulsions (% protection) / Protection against stage 4 convulsions (% protection) / Protection against stage 5 convulsions (% protection) / convulsive manifestations (points) induced by pentylenetetrazol (X ± SE): n = 10; for convulsive manifestations (points) induced by pentylenetetrazol (X ± SE): five-point scale
Protocol: (§1) Convulsions were induced by the administration of pentylenetetrazol. The severity (stage) of the convulsions was rated on a five-point scale. The anticonvulsant potency was rated on the basis of the substance's ability to reduce the severity of convulsions induced by the pentylenetetrazol. Halodif substances were administered intragastrically over 2 hr prior to the pentylenetetrazol. The pentylenetetrazol was administered subcutaneously. Probit analysis was used for statistical processing of the results with Student's test, ANOVA and criterion x. The differences in the results were considered statistically reliable at a significance level of p<0.05.
In the second phase the anticonvulsant potency of the reference substance was study in doses of 50 mg/kg, 100 mg/kg, 150 mg/kg, 200 mg/kg and 500 mg/kg (Table 2). The reference substance was racemic halodif. […] The halodif reference substance was used in doses of 50 mg/kg, 100 mg/kg, 150 mg/kg, 200 mg/kg and 500 mg/kg. Two hours after the halodif substance was administered to the animals the pentylenetetrazol (110 mg/kg) was administered and stage 3 and stage 5 convulsions were rated.
Samples were compared on the basis of the mean score for convulsive manifestations induced by pentylenetetrazol after administration of the samples under study.
The anticonvulsive potency of the samples of the halodif substance under study were also compared with respect to the proportion of animals in which the substance under study prevented the development of convulsions of differing severity induced by pentylenetetrazol. Table 4 presents the results expressed as the percentage of animals in which no convulsions of the specified stage developed (% protection).

[2] = test system: animals; assay: Establishing the convulsion-inducing dose of pentylenetetrazol; assay type: in vivo
Protocol: as §1
In the first phase of the study the optimum convulsion-inducing dose of pentylenetetrazol, CD97, which was 110 mg/kg (Table 1) was established.

[3] = sample dose 100 mg/kg 2 hours before pentylenetetrazol 110 mg/kg
[4] = sample dose 100 mg/kg 2 hours before pentylenetetrazol 110 mg/kg, listed as Sample 4/(+) isomer
[5] = sample dose 100 mg/kg intragastrically 2 hours before pentylenetetrazol 110 mg/kg
[6] = sample dose 150 mg/kg 2 hours before pentylenetetrazol 110 mg/kg
[7] = sample dose 150 mg/kg intragastrically 2 hours before pentylenetetrazol 110 mg/kg
[8] = sample dose 250 mg/kg 2 hours before pentylenetetrazol 110 mg/kg
[9] = sample dose 250 mg/kg 2 hours before pentylenetetrazol 110 mg/kg, listed as Sample 4/(+)isomer
[10] = sample dose 250 mg/kg intragastrically 2 hours before pentylenetetrazol 110 mg/kg
[11] = sample dose 100 mg/kg 2 hours before pentylenetetrazol 110 mg/kg, listed as Sample 2/(−) isomer
[12] = sample dose 150 mg/kg 2 hours before pentylenetetrazol 110 mg/kg, listed as Sample 2/(−) isomer
[13] = sample dose 250 mg/kg 2 hours before pentylenetetrazol 110 mg/kg, listed as Sample 2/(−) isomer
[14] = pentylenetetrazol dose 90, 5 animals in the group
[15] = pentylenetetrazol dose 100, 5 animals in the group
[16] = pentylenetetrazol dose 110, 5 animals in the group
[17] = doses of 100 mg/kg and 150 mg/kg, stages 3 and 4
[18] = reference substance 50 mg/kg intragastrically 2 h before pentylenetetrazol 110 mg/kg
[19] = reference substance 100 mg/kg intragastrically 2 h before pentylenetetrazol 110 mg/kg
[20] = reference substance 150 mg/kg intragastrically 2 h before pentylenetetrazol 110 mg/kg
[21] = reference substance 200 mg/kg intragastrically 2 h before pentylenetetrazol 110 mg/kg
[22] = reference substance 500 mg/kg intragastrically 2 h before pentylenetetrazol 110 mg/kg

## NC(=O)N[C@H](c1ccccc1)c1cccc(Cl)c1 [Sample 3/(+) isomer, (+)-1-[(3-chlorophenyl)-phenyl-methyl]urea]
[1]
  mean convulsions score compared with that of the reference sample: lower convulsions score
  anticonvulsive potency compared with the reference substance: more anticonvulsive potency
[1]; all stages (3, 4 and 5)
  protection against convulsions, comparison of the samples: greater protection
[1]; in vivo
  anticonvulsive potency compared with its optical antipode: higher anticonvulsive potency
[1]; [3]
  Protection against stage 3 convulsions (% protection): 30%
  Protection against stage 4 convulsions (% protection): 60%
  Protection against stage 5 convulsions (% protection): 80%
[1]; [4]
  Protection against stage 3 convulsions (% protection): 20%
  Protection against stage 4 convulsions (% protection): 80%
  Protection against stage 5 convulsions (% protection): 100%
[1]; [5]
  convulsive manifestations (points) induced by pentylenetetrazol (X ± SE): 3.2 ± 0.42 points
[1]; sample dose 100 mg/kg intragastrically 2 hours before pentylenetetrazol 110 mg/kg, listed as Sample 4/(+) isomer
  convulsive manifestations (points) induced by pentylenetetrazol (X ± SE): 3.0 ± 0.21 points
[1]; [6]
  Protection against stage 3 convulsions (% protection): 40%
  Protection against stage 4 convulsions (% protection): 90%
  Protection against stage 5 convulsions (% protection): 100%
[1]; sample dose 150 mg/kg 2 hours before pentylenetetrazol 110 mg/kg, listed as Sample 4/(+)isomer
  Protection against stage 3 convulsions (% protection): 30%
[1]; [7]
  convulsive manifestations (points) induced by pentylenetetrazol (X ± SE): 2.5 ± 0.31 points
[1]; sample dose 150 mg/kg intragastrically 2 hours before pentylenetetrazol 110 mg/kg, listed as Sample 4/(+) isomer
  convulsive manifestations (points) induced by pentylenetetrazol (X ± SE): 2.6 ± 0.31 points
[1]; [8]
  Protection against stage 3 convulsions (% protection): 70%
  Protection against stage 4 convulsions (% protection): 100%
  Protection against stage 5 convulsions (% protection): 100%
[1]; [9]
  Protection against stage 3 convulsions (% protection): 50%
  Protection against stage 4 convulsions (% protection): 90%
[1]; [10]
  convulsive manifestations (points) induced by pentylenetetrazol (X ± SE): 1.9 ± 0.28 points
[1]; sample dose 250 mg/kg intragastrically 2 hours before pentylenetetrazol 110 mg/kg, listed as Sample 4/(+) isomer
  convulsive manifestations (points) induced by pentylenetetrazol (X ± SE): 2.5 ± 0.27 points

## NC(=O)NC(c1ccccc1)c1cccc(Cl)c1 (single isomer, unassigned; (-)) [Sample 1/(−) isomer, (−)-1-[(3-chlorophenyl)-phenyl-methyl]urea]
[1]
  mean convulsions score compared with that of the reference sample: higher
  anticonvulsive potency compared with the reference substance: less anticonvulsive potency
[1]; [3]
  Protection against stage 3 convulsions (% protection): 10%
  Protection against stage 4 convulsions (% protection): 40%
  Protection against stage 5 convulsions (% protection): 60* %
[1]; [11]
  Protection against stage 4 convulsions (% protection): 20* %
  Protection against stage 5 convulsions (% protection): 70%
[1]; [5]
  convulsive manifestations (points) induced by pentylenetetrazol (X ± SE): 3.8 ± 0.39 points
[1]; sample dose 100 mg/kg intragastrically 2 hours before pentylenetetrazol 110 mg/kg, listed as Sample 2/(−) isomer
  convulsive manifestations (points) induced by pentylenetetrazol (X ± SE): 4.1 ± 0.23 points
[1]; sample dose 100 mg/kg intragastrically 2 hours before pentylenetetrazol 110 mg/kg, listed as sample 1
  convulsive manifestations (points) induced by pentylenetetrazol (X ± SE): 3.8±0.39 points
[1]; [6]
  Protection against stage 3 convulsions (% protection): 20%
  Protection against stage 4 convulsions (% protection): 70%
  Protection against stage 5 convulsions (% protection): 80%
[1]; [12]
  Protection against stage 3 convulsions (% protection): 10%
  Protection against stage 4 convulsions (% protection): 40* %
  Protection against stage 5 convulsions (% protection): 70%
[1]; [7]
  convulsive manifestations (points) induced by pentylenetetrazol (X ± SE): 2.9 ± 0.29 points
[1]; sample dose 150 mg/kg intragastrically 2 hours before pentylenetetrazol 110 mg/kg, listed as Sample 2/(−) isomer
  convulsive manifestations (points) induced by pentylenetetrazol (X ± SE): 3.5 ± 0.22 points
[1]; [8]
  Protection against stage 3 convulsions (% protection): 40%
  Protection against stage 4 convulsions (% protection): 80%
  Protection against stage 5 convulsions (% protection): 100%
[1]; [13]
  Protection against stage 3 convulsions (% protection): 30%
  Protection against stage 4 convulsions (% protection): 70%
[1]; [10]
  convulsive manifestations (points) induced by pentylenetetrazol (X ± SE): 2.8 ± 0.41 points
[1]; sample dose 250 mg/kg intragastrically 2 hours before pentylenetetrazol 110 mg/kg, listed as Sample 2/(−) isomer
  convulsive manifestations (points) induced by pentylenetetrazol (X ± SE): 3.0 ± 0.37 points
[1]; sample dose 250 mg/kg intragastrically 2 hours before pentylenetetrazol 110 mg/kg, listed as sample 1
  convulsive manifestations (points) induced by pentylenetetrazol (X ± SE): 2.8±0.41 points

## C1CCc2nnnn2CC1 [Pentylenetetrazol, pentylenetetrazol]
[2]; pentylenetetrazol dose 80 (no unit in table; mg/kg), 5 animals in the group
  Number of animals with stage 3 convulsions: 0
[2]; pentylenetetrazol dose 80, 5 animals in the group
  Proportion of animals with stage 3 (%): 0%
[2]; [14]
  Number of animals with stage 3 convulsions: 3
  Proportion of animals with stage 3 (%): 60%
[2]; [15]
  Number of animals with stage 3 convulsions: 4
  Proportion of animals with stage 3 (%): 80%
[2]; [16]
  Number of animals with stage 3 convulsions: 4
  Proportion of animals with stage 3 (%): 80%
[2]; subcutaneous
  optimum convulsion-inducing dose of pentylenetetrazol, CD97: 110 mg/kg

## NC(=O)NC(c1ccccc1)c1cccc(Cl)c1 (racemic) [Reference sample, 1-[(3-chlorophenyl)-phenyl-methyl]urea, reference compound]
[1]; dose 200 mg/kg and higher, pentylenetetrazol 110 mg/kg
  appearance of stage 5 convulsions: completely prevented
[1]; [17]
  protection compared with samples 1 and 2 ((−)-isomer of halodif): reliably higher protection
  protection compared with samples 3 and 4 ((+)-isomer of halodif): reliably lower protection
[1]; lowest dose (50 mg/kg), pentylenetetrazol 110 mg/kg
  animals protected from tonic convulsions in all extremities (stage 5): 20%
[1]; [18]
  Proportion of animals with stage 3 convulsions (%, n = 5): 100%
  Proportion of animals with stage 5 convulsions (%, n = 5): 80%
[1]; [19]
  Proportion of animals with stage 3 convulsions (%, n = 5): 100%
  Proportion of animals with stage 5 convulsions (%, n = 5): 20%
[1]; [20]
  Proportion of animals with stage 3 convulsions (%, n = 5): 70%
  Proportion of animals with stage 5 convulsions (%, n = 5): 10%
[1]; [21]
  Proportion of animals with stage 3 convulsions (%, n = 5): 60%
  Proportion of animals with stage 5 convulsions (%, n = 5): 0%
[1]; [22]
  Proportion of animals with stage 3 convulsions (%, n = 5): 60%
  Proportion of animals with stage 5 convulsions (%, n = 5): 0%
[1]; [3]
  Protection against stage 3 convulsions (% protection): 20%
  Protection against stage 4 convulsions (% protection): 50%
  Protection against stage 5 convulsions (% protection): 80%
[1]; [5]
  convulsive manifestations (points) induced by pentylenetetrazol (X ± SE): 3.5 ± 0.31 points
[1]; [6]
  Protection against stage 3 convulsions (% protection): 30%
  Protection against stage 4 convulsions (% protection): 70%
  Protection against stage 5 convulsions (% protection): 90%
[1]; [7]
  convulsive manifestations (points) induced by pentylenetetrazol (X ± SE): 2.9 ± 0.28 points
[1]; [8]
  Protection against stage 3 convulsions (% protection): 50%
  Protection against stage 4 convulsions (% protection): 80%
  Protection against stage 5 convulsions (% protection): 100%
[1]; [10]
  convulsive manifestations (points) induced by pentylenetetrazol (X ± SE): 2.6 ± 0.33 points
[1]; starting at a dose of 150 mg/kg, pentylenetetrazol 110 mg/kg
  animals in which development of clonic convulsions (stage 3 convulsions) was prevented: 30-40%
